“Also recorded” adds a separate entry of the source.
Key:
[1] = test system: MaPylRS; experiment: RNAse A/LC-HRMS assay of Ma-tRNA^Pyl acylation by MaPylRS; assay type: biochemical, Methanomethylophilus alvus; details: some statements also rest on intact tRNA analysis
[2] = test system: DH10B cells co-expressing MaFRSA; experiment: In vivo incorporation at position 200 of sfGFP, MaFRSA (intact mass, GluC LC-MS/MS); assay type: cell-based, E. coli
[3] = test system: MaFRS2 (N166A, V168K); experiment: RNAse A/LC-HRMS assay of Ma-tRNA^Pyl acylation by MaFRS2; assay type: biochemical, Methanomethylophilus alvus; details: some statements also rest on intact tRNA analysis
[4] = test system: MaFRS1 (N166A, V168L); experiment: RNAse A/LC-HRMS assay of Ma-tRNA^Pyl acylation by MaFRS1; assay type: biochemical, Methanomethylophilus alvus; details: some statements also rest on intact tRNA analysis
[5] = test system: MaFRSA (N166A, V168A); experiment: RNAse A/LC-HRMS assay of Ma-tRNA^Pyl acylation by MaFRSA; assay type: biochemical, Methanomethylophilus alvus; details: RNAse A/LC-HRMS and intact tRNA analysis
[6] = test system: MaFRSA (N166A, V168A); experiment: Intact tRNA mass spectrometry: acylation of Ma-tRNA^Pyl by MaFRSA; assay type: biochemical, Methanomethylophilus alvus; details: for Yield of diacylated Ma-tRNA^Pyl / Yield of monoacylated Ma-tRNA^Pyl: MaFRSA 2.5 μM, Ma-tRNA^Pyl 25 μM, 37° C., 2 h, average of 3 technical replicates
[7] = test system: MaFRS1 (N166A, V168L); experiment: Intact tRNA mass spectrometry: acylation of Ma-tRNA^Pyl by MaFRS1; assay type: biochemical, Methanomethylophilus alvus; details: MaFRS1 2.5 μM, Ma-tRNA^Pyl 25 μM, 37° C., 2 h; average of 3 technical replicates
[8] = test system: MaFRSA; experiment: Malachite green assay to monitor adenylation by MaFRSA; assay type: biochemical, Methanomethylophilus alvus
Description: Malachite green assay to monitor adenylation. Enzymatic adenylation reactions were monitored using malachite green using a previous protocol with modifications^52. Each adenylation reaction (60 μL) contained the following components: 200 mM HEPES-K (pH 7.5), 4 mM DTT, 10 mM MgCl2, 0.2 mM ATP, 0-10 mM substrate, 4 U/mL E. coli inorganic pyrophosphatase (NEB), and 2.5 μM enzyme (MaFRS1 or MaFRSA). Adenylation reactions were incubated at 37° C. in a dry-air incubator. Aliquots (10 μL) were withdrawn after 0, 5, 10, 20, and 30 min and quenched upon addition to an equal volume of 20 mM EDTA (pH 8.0) on ice. Once all aliquots were withdrawn, 80 μL of Malachite Green Solution (Echelon Biosciences) was added to each aliquot and the mixture incubated at RT for 30 min. After shaking for 30 sec to remove bubbles, the absorbance at 620 nm was measured on a Synergy HTX plate reader (BioTek). The absorbance was then converted to phosphate concentration using a phosphate standard curve (0-100 μM) and plotted over time to determine turnover numbers.

[9] = test system: MaFRS2 (N166A, V168K); experiment: Intact tRNA mass spectrometry: acylation of Ma-tRNA^Pyl by MaFRS2; assay type: biochemical, Methanomethylophilus alvus; details: MaFRS2 2.5 μM, Ma-tRNA^Pyl 25 μM, 37° C., 2 h; average of 3 technical replicates
[10] = samples vi-vii, DH10B, defined media lacking glutamate, 1 mM substrate

SMILES	Substrate activity for MaFRS2 (in words) [3]	Substrate activity for MaFRS1 (in words) [4]	Substrate activity for MaFRSA (in words) [5]	Yield of diacylated Ma-tRNA^Pyl [6] [%]	Yield of monoacylated Ma-tRNA^Pyl [6] [%]	Yield of diacylated Ma-tRNA^Pyl [7] [%]	Yield of monoacylated Ma-tRNA^Pyl [7] [%]	Yield of diacylated Ma-tRNA^Pyl [9] [%]	Yield of monoacylated Ma-tRNA^Pyl [9] [%]	also measured
CC(C)(C)OC(=O)NCCCCC(C(=O)O)C(=O)O [Substrate 16]	–	–	–	–	–	–	–	–	–	Substrate activity for MaPylRS (in words) [1]: accepts; also recorded: measurable substrate
N[C@@H](Cc1cccc(C(F)(F)F)c1)C(=O)O [Sample 20]	–	–	–	–	–	–	–	–	–	sfGFP containing variant 20 at position 200 [2, 10]: 97.14%
N[C@H](Cc1ccccc1)C(=O)O [Substrate 11, D-phenylalanine]	no reactivity was detected	no reactivity was detected	–	–	–	–	–	–	–	–
CC(C)(C)OC(=O)NCCCC[C@@H](N)C(=O)O [Substrate 5, N^ε-(tert-butoxycarbonyl)-D-lysine]	–	–	–	–	–	–	–	–	–	Substrate activity for MaPylRS (in words) [1]: No reactivity was detected
N[C@@H](Cc1cccc(C(F)(F)F)c1)C(=O)O [Substrate 20]	–	–	–	–	–	–	–	–	–	Intact mass of expressed sfGFP variant (in words) ([2]; E. coli DH10B, 1 mM monomer, sfGFP-200TAG): mass corresponded to the presence of a single trifluoromethyl phenylalanine side chain; sfGFP containing variant 1 at position 200 [2, 10]: 0.00%; sfGFP containing variant 2 at position 200 [2, 10]: 0.00%; sfGFP containing variant 21 at position 200 [2, 10]: 0.63%; sfGFP containing variant A at position 200 [2, 10]: 0.14%; sfGFP containing variant F at position 200 [2, 10]: 0.15%; sfGFP containing variant K at position 200 [2, 10]: 0.14%; sfGFP containing variant Q at position 200 [2, 10]: 0.62%; sfGFP containing variant W at position 200 [2, 10]: 1.02%; sfGFP containing variant Y at position 200 [2, 10]: 0.15%
N[C@@H](Cc1ccccc1)C(=O)O [Substrate 7, L-phenylalanine, reference compound]	–	–	low activity	–	–	–	–	–	–	–
O=C(O)C(Cc1cccc(C(F)(F)F)c1)C(=O)O [Substrate 18]	accept; also recorded: excellent substrates	accept; also recorded: excellent substrates	highest activity	0	31.4	9.24	59.3	0	26.1	Acylation product in competition of L-Phe 7 and 18 ([6]; MaFRSA incubated with equal concentration (10 mM) of L-Phe 7 and meta-CF3-2-BMA 18): Only the acylation product of 18 and Ma-tRNA^Pyl is observed; also recorded: only the malonyl product (18-tRNA^Pyl) is observed; Rate of adenylation as % of the rate observed for meta-CF3-L-Phe [8]: 36%
Cc1cccc(CC(C(=O)O)C(=O)O)c1 [Substrate 17]	accept; also recorded: excellent substrates	accept; also recorded: excellent substrates	high activity	1.54	9.48	3.64	49.8	0	52.0	–
O=C(O)C(Cc1cccc(Br)c1)C(=O)O [Substrate 19]	accept; also recorded: excellent substrates	accept; also recorded: excellent substrates	high activity	0	22.3	10.8	37.4	0	32.7	–
